This note sets out measurements from patent US4840966A, “Method of treating hypertension” (Mitsui Norin Co., Ltd., priority 1987, dated 1989).

The target of series [1] is T1, ACE (Angiotensin I converting enzyme) (Sus scrofa, UniProt F1RRW5).
T1 construct: the ACE obtained from renal cortex of pig; from tissue; host or cells: renal cortex of pig
T1 sequence (F1RRW5 34-1309): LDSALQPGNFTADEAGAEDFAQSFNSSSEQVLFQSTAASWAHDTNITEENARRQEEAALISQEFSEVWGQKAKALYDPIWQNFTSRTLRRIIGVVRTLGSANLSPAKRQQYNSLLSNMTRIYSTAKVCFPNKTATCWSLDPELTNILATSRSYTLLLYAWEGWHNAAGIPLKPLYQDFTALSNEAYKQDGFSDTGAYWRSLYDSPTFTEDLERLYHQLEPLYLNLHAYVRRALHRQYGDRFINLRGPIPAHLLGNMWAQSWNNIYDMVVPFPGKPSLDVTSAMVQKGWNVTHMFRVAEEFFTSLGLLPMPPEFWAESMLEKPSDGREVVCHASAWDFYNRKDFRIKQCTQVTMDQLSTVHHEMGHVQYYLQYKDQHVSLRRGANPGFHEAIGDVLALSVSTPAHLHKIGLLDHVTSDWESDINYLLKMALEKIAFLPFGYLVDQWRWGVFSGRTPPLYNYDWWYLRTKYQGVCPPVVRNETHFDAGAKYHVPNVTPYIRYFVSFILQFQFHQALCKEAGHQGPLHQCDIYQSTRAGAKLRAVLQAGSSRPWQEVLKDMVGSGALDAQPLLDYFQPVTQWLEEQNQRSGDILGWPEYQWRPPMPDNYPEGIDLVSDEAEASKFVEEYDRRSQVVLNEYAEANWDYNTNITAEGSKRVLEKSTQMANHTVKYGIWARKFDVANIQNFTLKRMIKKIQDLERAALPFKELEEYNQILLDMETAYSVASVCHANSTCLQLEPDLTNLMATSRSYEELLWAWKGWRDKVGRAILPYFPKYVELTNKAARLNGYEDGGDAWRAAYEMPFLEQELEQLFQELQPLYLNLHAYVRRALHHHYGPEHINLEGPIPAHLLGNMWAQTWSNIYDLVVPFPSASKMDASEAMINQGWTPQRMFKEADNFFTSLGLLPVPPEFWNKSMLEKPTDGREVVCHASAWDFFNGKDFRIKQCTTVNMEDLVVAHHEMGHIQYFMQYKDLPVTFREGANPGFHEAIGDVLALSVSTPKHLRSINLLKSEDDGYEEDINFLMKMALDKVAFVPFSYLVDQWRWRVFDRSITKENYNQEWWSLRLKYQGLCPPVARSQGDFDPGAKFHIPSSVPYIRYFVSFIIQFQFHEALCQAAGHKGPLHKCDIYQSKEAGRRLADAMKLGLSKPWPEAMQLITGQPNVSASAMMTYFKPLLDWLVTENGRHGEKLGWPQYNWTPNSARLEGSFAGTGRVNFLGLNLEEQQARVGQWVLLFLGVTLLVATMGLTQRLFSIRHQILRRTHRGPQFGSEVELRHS
The series can be described thus: Inhibition of ACE (Hip-His-Leu substrate, O-phthal aldehyde fluorescence). It is filed as biochemical, pig.
Excerpt: The activity of ACE inhibition was expressed by the equation
in which S was the intensity of the fluorescence in the above described procedure with the sample solution, A was the value of the blank test by replacing the sample solution with the same volume of water and B was the value obtained by replacing the enzyme solution with the same volume of pure water.

The target in series [2] is T2, carboxypeptidase A (Bos taurus, UniProt P00730).
T2 sequence (P00730 111-419): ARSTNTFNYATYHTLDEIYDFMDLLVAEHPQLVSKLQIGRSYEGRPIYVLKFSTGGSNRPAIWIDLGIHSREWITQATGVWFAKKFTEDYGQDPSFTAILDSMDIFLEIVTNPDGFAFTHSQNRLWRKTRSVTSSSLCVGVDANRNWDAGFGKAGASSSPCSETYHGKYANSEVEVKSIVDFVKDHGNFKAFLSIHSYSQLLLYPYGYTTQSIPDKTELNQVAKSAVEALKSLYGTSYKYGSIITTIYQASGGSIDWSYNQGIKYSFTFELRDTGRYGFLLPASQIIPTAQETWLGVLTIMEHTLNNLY
The series can be described thus: Inhibition of carboxypeptidase A. The series is classed as biochemical.

The subject of series [3] is Spontaneously Hypertensive Rats. The series can be described thus: Systolic blood pressure of SHR fed epigallocatechin gallate in the diet (FIG. 4). It is filed as in vivo. The settings on record: 8 weeks old, 0.5% in diet, after seven weeks feeding, control continued to rise. From the text: Three SHR (Spontaneously Hypertensive Rats) of 8 weeks old were fed on the diet which consisted of 99.5% of normal diet and 0.5% of epigallocatechin gallate mixed together. As a control two SHR of the same stock were fed on a 100% normal diet. After seven weeks feeding the blood pressure of tea polyphenol fed group levelled off while the blood pressure of the control group continued to rise. In FIG. 4, the curve A denotes the systolic blood pressure of control group while B denotes the systolic blood pressure of test group.

Series [4] is described as follows: Acute oral toxicity in mice (LD50). The following applies: mouse, in vivo, male ICR mice, 8 weeks old, read-out: LD50 of one week.
[5] abbreviates: ACE from renal cortex of pig, Hip-His-Leu substrate, 37° C.

Each structure is given as a SMILES string. Where two headings read alike, the source gives them in different places.

Consider `O=C(O[C@@H]1Cc2c(O)cc(O)cc2O[C@@H]1c1cc(O)c(O)c(O)c1)c1cc(O)c(O)c(O)c1` [(-)-Epigallocatechin gallate, (-)-epigallocatechin gallate], for which the IC50 in series [1] stood at 90 µM; in series [2], 3000 µM. The “blood pressure (in words)” value in series [3] is listed as “levelled off”. In addition, the LD50 at 168 h in series [4] stood at 2310 mg/kg.
For `O=c1c(O)cc([C@H]2Oc3cc(O)cc(O)c3C[C@H]2O)cc2c([C@H]3Oc4cc(O)cc(O)c4C[C@H]3O)cc(O)c(O)c12` [Free theaflavin, free theaflavin], the IC50 in series [1] (setting [5]) was 400 µM; in series [2], more than 5000 µM.
`O=C(O[C@@H]1Cc2c(O)cc(O)cc2O[C@@H]1c1cc(O)c(=O)c2c(O)c(O)cc([C@H]3Oc4cc(O)cc(O)c4C[C@H]3O)c2c1)c1cc(O)c(O)c(O)c1` [Theaflavin monogallate A, theaflavin monogallate A]: the IC50 was 115 µM in series [1] (setting [5]) and more than 5000 µM in series [2].
On the same counts, the results for `O=C(O[C@@H]1Cc2c(O)cc(O)cc2O[C@@H]1c1cc(O)c(O)c2c(=O)c(O)cc([C@H]3Oc4cc(O)cc(O)c4C[C@H]3O)cc12)c1cc(O)c(O)c(O)c1` [Theaflavin monogallate B, theaflavin monogallate B] are 110 µM and more than 5000 µM.

For orientation: IC50 means the point on the concentration scale where inhibition reaches its midpoint. A low value points to greater potency in that assay. The LD50 is the dose expected to kill half of the subjects tested.
